From PubChem BioAssay (NCI)
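Compound exposure: 48 hours, 5 concentrations, 96-well plates. TGI marks complete inhibition of growth.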

Tests used:
Test in all cases: inhibition of tumour cell growth, NCI panel, 48 h
M14 melanoma = system: M14 melanoma
OVCAR-4 ovarian = system: OVCAR-4 ovarian
MDA-MB-435 = system: MDA-MB-435
HCT-15 colon = system: HCT-15 colon
SNB-19 CNS = system: SNB-19 CNS
COLO 205 colon = system: COLO 205 colon
MDA-MB-231 breast = system: MDA-MB-231 breast
NCI-H226 lung = system: NCI-H226 lung
MDA-N = system: MDA-N
HCT-116 colon = system: HCT-116 colon
UACC-257 melanoma = system: UACC-257 melanoma
DU-145 prostate = system: DU-145 prostate
K-562 leukemia = system: K-562 leukemia
SN12C renal = system: SN12C renal
OVCAR-8 ovarian = system: OVCAR-8 ovarian
MALME-3M melanoma = system: MALME-3M melanoma
T-47D breast = system: T-47D breast
HCC-2998 colon = system: HCC-2998 colon
EKVX NSCLC = system: EKVX NSCLC
PC-3 prostate = system: PC-3 prostate
NCI/ADR-RES ovarian = system: NCI/ADR-RES ovarian
RXF 393 renal = system: RXF 393 renal
HOP-62 NSCLC = system: HOP-62 NSCLC
IGROV1 ovarian = system: IGROV1 ovarian
U251 CNS = system: U251 CNS
NCI-H522 lung = system: NCI-H522 lung
SNB-75 CNS = system: SNB-75 CNS
UO-31 renal = system: UO-31 renal
MOLT-4 leukemia = system: MOLT-4 leukemia
KM12 colon = system: KM12 colon
SR leukemia = system: SR leukemia
HL-60(TB) leukemia = system: HL-60(TB) leukemia
ACHN renal = system: ACHN renal
CCRF-CEM leukemia = system: CCRF-CEM leukemia
NCI-H23 lung = system: NCI-H23 lung
HT29 colon = system: HT29 colon
786-0 renal = system: 786-0 renal
HS 578T breast = system: HS 578T breast
A498 renal = system: A498 renal
UACC-62 melanoma = system: UACC-62 melanoma
SF-268 CNS = system: SF-268 CNS
SK-MEL-5 melanoma = system: SK-MEL-5 melanoma
OVCAR-5 ovarian = system: OVCAR-5 ovarian
LOX IMVI melanoma = system: LOX IMVI melanoma
MCF7 breast = system: MCF7 breast
HOP-92 NSCLC = system: HOP-92 NSCLC
RPMI-8226 leukemia = system: RPMI-8226 leukemia
SK-MEL-28 melanoma = system: SK-MEL-28 melanoma
SF-295 CNS = system: SF-295 CNS
SK-MEL-2 melanoma = system: SK-MEL-2 melanoma
TK-10 renal = system: TK-10 renal
A549 NSCLC = system: A549 NSCLC
NCI-H460 lung = system: NCI-H460 lung
SK-OV-3 ovarian = system: SK-OV-3 ovarian
CAKI-1 renal = system: CAKI-1 renal
SF-539 CNS = system: SF-539 CNS
SW-620 colon = system: SW-620 colon
OVCAR-3 ovarian = system: OVCAR-3 ovarian
BT-549 breast = system: BT-549 breast

O=C1CC2CC(CC3(CO3)C2)C1F (stereo not drawn)
TGI (M14 melanoma): > 100 µM | TGI (OVCAR-4 ovarian): > 100 µM | TGI (MDA-MB-435): > 100 µM | TGI (HCT-15 colon): > 100 µM | TGI (SNB-19 CNS): > 100 µM | TGI (COLO 205 colon): > 100 µM | TGI (MDA-MB-231 breast): > 100 µM | TGI (NCI-H226 lung): > 100 µM | TGI (MDA-N): > 100 µM | TGI (HCT-116 colon): > 100 µM | TGI (UACC-257 melanoma): > 100 µM | TGI (DU-145 prostate): > 100 µM | TGI (K-562 leukemia): > 100 µM | TGI (SN12C renal): > 100 µM | TGI (OVCAR-8 ovarian): > 100 µM | TGI (MALME-3M melanoma): > 100 µM | TGI (T-47D breast): > 100 µM | TGI (HCC-2998 colon): > 100 µM | TGI (EKVX NSCLC): > 100 µM | TGI (PC-3 prostate): > 100 µM | TGI (NCI/ADR-RES ovarian): > 100 µM | TGI (RXF 393 renal): > 100 µM | TGI (HOP-62 NSCLC): > 100 µM | TGI (IGROV1 ovarian): > 100 µM | TGI (U251 CNS): > 100 µM | TGI (NCI-H522 lung): > 100 µM | TGI (SNB-75 CNS): > 100 µM | TGI (UO-31 renal): > 100 µM | TGI (MOLT-4 leukemia): > 100 µM | TGI (KM12 colon): > 100 µM | TGI (SR leukemia): > 100 µM | TGI (HL-60(TB) leukemia): > 100 µM | TGI (ACHN renal): > 100 µM | TGI (CCRF-CEM leukemia): > 100 µM | TGI (NCI-H23 lung): > 100 µM | TGI (HT29 colon): > 100 µM | TGI (786-0 renal): > 100 µM | TGI (HS 578T breast): > 100 µM | TGI (A498 renal): > 100 µM | TGI (UACC-62 melanoma): > 100 µM | TGI (SF-268 CNS): > 100 µM | TGI (SK-MEL-5 melanoma): > 100 µM | TGI (OVCAR-5 ovarian): > 100 µM | TGI (LOX IMVI melanoma): > 100 µM | TGI (MCF7 breast): > 100 µM | TGI (HOP-92 NSCLC): > 100 µM | TGI (RPMI-8226 leukemia): > 100 µM | TGI (SK-MEL-28 melanoma): > 100 µM | TGI (SF-295 CNS): > 100 µM | TGI (SK-MEL-2 melanoma): > 100 µM | TGI (TK-10 renal): > 100 µM | TGI (A549 NSCLC): > 100 µM | TGI (NCI-H460 lung): > 100 µM | TGI (SK-OV-3 ovarian): > 100 µM | TGI (CAKI-1 renal): > 100 µM

CC(C)(C)[Si](C)(C)OCC1OC(n2ccc(=O)[nH]c2=O)C(O[Si](C)(C)C(C)(C)C)[C@]12O[C@@H]2CO (stereo partly drawn)
TGI (M14 melanoma): 43.2 µM | TGI (OVCAR-4 ovarian): 47.4 µM | TGI (MDA-MB-435): 35.3 µM | TGI (HCT-15 colon): 31.1 µM | TGI (SNB-19 CNS): 24 µM | TGI (COLO 205 colon): 42.9 µM | TGI (MDA-MB-231 breast): 39.6 µM | TGI (NCI-H226 lung): 30.7 µM | TGI (MDA-N): 59 µM | TGI (HCT-116 colon): 39 µM | TGI (UACC-257 melanoma): 39.7 µM | TGI (SF-539 CNS): 47.7 µM | TGI (DU-145 prostate): 38.1 µM | TGI (K-562 leukemia): > 100 µM | TGI (SN12C renal): 36.3 µM | TGI (OVCAR-8 ovarian): > 100 µM | TGI (HCC-2998 colon): 81.7 µM | TGI (EKVX NSCLC): 36.6 µM | TGI (PC-3 prostate): 16.8 µM | TGI (NCI/ADR-RES ovarian): 44 µM | TGI (HOP-62 NSCLC): 30.2 µM | TGI (IGROV1 ovarian): 33.1 µM | TGI (U251 CNS): 42.6 µM | TGI (NCI-H522 lung): 29.7 µM | TGI (SNB-75 CNS): 40.4 µM | TGI (UO-31 renal): 21.7 µM | TGI (MOLT-4 leukemia): 46.3 µM | TGI (KM12 colon): 35 µM | TGI (SR leukemia): > 100 µM | TGI (ACHN renal): 24.2 µM | TGI (NCI-H23 lung): 30.2 µM | TGI (HT29 colon): 23.8 µM | TGI (786-0 renal): 44.6 µM | TGI (A498 renal): 38.7 µM | TGI (UACC-62 melanoma): 36.8 µM | TGI (SF-268 CNS): 42.5 µM | TGI (SW-620 colon): 58.7 µM | TGI (SK-MEL-5 melanoma): 34.7 µM | TGI (OVCAR-5 ovarian): 40.6 µM | TGI (LOX IMVI melanoma): 40.9 µM | TGI (MCF7 breast): 38.2 µM | TGI (HOP-92 NSCLC): 32.8 µM | TGI (RPMI-8226 leukemia): > 100 µM | TGI (SK-MEL-28 melanoma): 34.6 µM | TGI (SF-295 CNS): 23.7 µM | TGI (SK-MEL-2 melanoma): 28.6 µM | TGI (OVCAR-3 ovarian): 28.4 µM | TGI (TK-10 renal): 31 µM | TGI (A549 NSCLC): 26.6 µM | TGI (NCI-H460 lung): 35.1 µM | TGI (SK-OV-3 ovarian): 30.5 µM | TGI (BT-549 breast): 19.4 µM | TGI (CAKI-1 renal): 38.7 µM
